For one experiment, the system named is MOLM-13 cells. Briefly: Cell proliferation assay (alamarBlue), MOLM-13. In kind it is cell-based. To be noted: Homo sapiens, 96 hours incubation, inhibition of cell proliferation. The method, boiled down: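 IC50 = concentration giving 50% growth inhibition relative to buffer-treated cells, after subtracting baseline fluorescence taken before dosing. Compound applied at 1E-5 to 1E-8 M for 96 h at 37 °C in RPMI1640 with 10% FCS; alamarBlue signal at 530/590 nm.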

In a further experiment the target is T1, BRD4 (BD1) (Homo sapiens, UniProt O60885).
T1 construct: with relatively long constructs also being possible, preferably amino acids 44-168; made in house; host or cells: E. coli
Kind of experiment: Binding assay BRD4/acetylated peptide H4 (TR-FRET protein-protein interaction assay). The method, boiled down:
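Displacement of biotin-Ac-H4 peptide from His6-tagged BRD4(BD1), final usually 10 nM, read as Eu-streptavidin to anti-His-XL665 TR-FRET (665/620 nm). Compounds tested at 11 doses up to 20 μM in duplicate, pH 7.5 HEPES, 22 °C then 4 °C incubation; IC50 by 4-parameter regression.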

From patent US9890147B2 (BAYER PHARMA AKTIENGESELLSCHAFT, priority 2012, dated 2018) come the findings set out here.

On to `CNC(=O)N1N=C(c2ccc(F)c(N3CCC(O)CC3)c2)c2cc(OC)c(OC)cc2CC1C` (racemic) [Example 146, (±)-1-[4-fluoro-3-(4-hydroxypiperidin-1-yl)phenyl]-7,8-dimethoxy-N,4-dimethyl-4,5-dihydro-3H-2,3-benzodiazepine-3-carboxamide], for which the IC50 with MOLM-13 cells is 1150 nM; on BRD4 (BD1), 470 nM.

As to `CNC(=O)N1N=C(c2ccc(N3CCC(N(C)C)CC3)cc2)c2cc(OC)c(OC)cc2C[C@@H]1C` [Example 180.2, (4S)-1-{4-[4-(dimethylamino)piperidin-1-yl]phenyl}-7,8-dimethoxy-N,4-dimethyl-4,5-dihydro-3H-2,3-benzodiazepine-3-carboxamide], the IC50 was found to be 50 nM in the experiment with MOLM-13 cells and 60 nM at BRD4 (BD1).

Consider `CNC(=O)N1N=C(c2ccc(-c3cccc(F)c3)cc2)c2cc(OC)c(OC)cc2CC1C` (racemic) [Example 89, (±)-1-(3′-fluorobiphenyl-4-yl)-7,8-dimethoxy-N,4-dimethyl-4,5-dihydro-3H-2,3-benzodiazepine-3-carboxamide], for which the IC50 is 380 nM in the experiment on MOLM-13 cells and 140 nM at BRD4 (BD1).

Regarding `CNC(=O)N1N=C(c2ccc(-c3ccc([S+](C)[O-])cc3)cc2)c2cc(OC)c(OC)cc2CC1C` (racemic) [Example 67, (±)-7,8-dimethoxy-N,4-dimethyl-1-[4′-(methylsulphinyl)biphenyl-4-yl]-4,5-dihydro-3H-2,3-benzodiazepine-3-carboxamide], the IC50 with MOLM-13 cells worked out at 470 nM; on BRD4 (BD1), 40 nM.

Regarding `CNC(=O)N1N=C(c2ccc(-c3ccccc3CO)cc2)c2cc(OC)c(OC)cc2CC1C` (racemic) [Example 112, (±)-1-[2′-(hydroxymethyl)biphenyl-4-yl]-7,8-dimethoxy-N,4-dimethyl-4,5-dihydro-3H-2,3-benzodiazepine-3-carboxamide], the IC50 with MOLM-13 cells came out at 630 nM; at BRD4 (BD1) it was 80 nM.

Turning to `CNC(=O)N1N=C(c2ccc(-c3ccnc(OC)c3)cc2)c2cc(OC)c(OC)cc2CC1C` (racemic) [Example 125, (±)-7,8-dimethoxy-1-[4-(2-methoxypyridin-4-yl)phenyl]-N,4-dimethyl-4,5-dihydro-3H-2,3-benzodiazepine-3-carboxamide], the IC50 in the experiment on MOLM-13 cells turned out to be 1160 nM; on BRD4 (BD1), 70 nM.

Turning to `CNC(=O)N1N=C(c2ccc(N3CCC3)cc2)c2cc(OC)c(OC)cc2C[C@H]1C` [Example 128.1, (4R)-1-[4-(azetidin-1-yl)phenyl]-7,8-dimethoxy-N,4-dimethyl-4,5-dihydro-3H-2,3-benzodiazepine-3-carboxamide], the IC50 in the experiment with MOLM-13 cells was above 10000 nM; at BRD4 (BD1), 3980 nM.

For the compound `CNC(=O)N1N=C(c2ccc(-n3nc(C(F)(F)F)cc3C)cc2)c2cc(OC)c(OC)cc2CC1C` (racemic) [Example 151, (±)-7,8-dimethoxy-N,4-dimethyl-1-{4-[5-methyl-3-(trifluoromethyl)-1H-pyrazol-1-yl]phenyl}-4,5-dihydro-3H-2,3-benzodiazepine-3-carboxamide], the results for the IC50 with MOLM-13 cells and on BRD4 (BD1) were 1310 nM and 20 nM, respectively.

With `CNC(=O)N1N=C(c2ccc(-c3ccc(-c4ccc(Cl)s4)cc3)cc2)c2cc(OC)c(OC)cc2CC1C` (racemic) [Example 88, (±)-1-[4′-(5-chlorothien-2-yl)biphenyl-4-yl]-7,8-dimethoxy-N,4-dimethyl-4,5-dihydro-3H-2,3-benzodiazepine-3-carboxamide], the IC50 in the experiment with MOLM-13 cells was found to be 670 nM; at BRD4 (BD1), 290 nM.

With `CNC(=O)N1N=C(c2ccc(-c3cccc(C(F)(F)F)c3)cc2)c2cc(OC)c(OC)cc2CC1C` (racemic) [Example 85, (±)-7,8-dimethoxy-N,4-dimethyl-1-[3′-(trifluoromethyl)biphenyl-4-yl]-4,5-dihydro-3H-2,3-benzodiazepine-3-carboxamide], the IC50 stood at 1080 nM in the experiment with MOLM-13 cells and 290 nM at BRD4 (BD1).

For the compound `CNC(=O)N1N=C(c2ccc(-c3ccncc3F)cc2)c2cc(OC)c(OC)cc2CC1C` (racemic) [Example 84, (±)-1-[4-(3-fluoropyridin-4-yl)phenyl]-7,8-dimethoxy-N,4-dimethyl-4,5-dihydro-3H-2,3-benzodiazepine-3-carboxamide], the IC50 with MOLM-13 cells was 340 nM; at BRD4 (BD1) it was 60 nM.

For the compound `CNC(=O)N1N=C(c2ccc(-c3ccc(C(F)(F)F)cc3)cc2)c2cc(OC)c(OC)cc2CC1C` (racemic) [Example 86, (±)-7,8-dimethoxy-N,4-dimethyl-1-[4′-(trifluoromethyl)biphenyl-4-yl]-4,5-dihydro-3H-2,3-benzodiazepine-3-carboxamide], the IC50 in the experiment with MOLM-13 cells amounted to 1430 nM; at BRD4 (BD1), 390 nM.

`CCC1Cc2cc(OC)c(OC)cc2C(c2ccc(-c3c(C)nn(C)c3C)cc2)=NN1C(=O)NC` (racemic) [Example 220, (±)-4-ethyl-7,8-dimethoxy-N-methyl-1-[4-(1,3,5-trimethyl-1H-pyrazol-4-yl)phenyl]-4,5-dihydro-3H-2,3-benzodiazepine-3-carboxamide]: the IC50 turned out to be 2400 nM with MOLM-13 cells and 490 nM at BRD4 (BD1).

Consider `CNC(=O)N1N=C(c2ccc(-c3ccc(F)c(C#N)c3)cc2)c2cc(OC)c(OC)cc2CC1C` (racemic) [Example 75, (±)-1-(3′-cyano-4′-fluorobiphenyl-4-yl)-7,8-dimethoxy-N,4-dimethyl-4,5-dihydro-3H-2,3-benzodiazepine-3-carboxamide], for which the IC50 with MOLM-13 cells amounted to 660 nM; at BRD4 (BD1), 130 nM.

As to `CC[C@H]1Cc2cc(OC)c(OC)cc2C(c2ccc(N3CCNCC3)cc2)=NN1C(=O)NC` [Example 202.1, (4S)-4-ethyl-7,8-dimethoxy-N-methyl-1-[4-(piperazin-1-yl)phenyl]-4,5-dihydro-3H-2,3-benzodiazepine-3-carboxamide], the IC50 in the experiment with MOLM-13 cells stood at 580 nM; at BRD4 (BD1), 640 nM.

`CNC(=O)N1N=C(c2ccc(N3CCC(OC)CC3)cc2)c2cc(OC)c(OC)cc2CC1C` (racemic) [Example 179, (±)-7,8-dimethoxy-1-[4-(4-methoxypiperidin-1-yl)phenyl]-N,4-dimethyl-4,5-dihydro-3H-2,3-benzodiazepine-3-carboxamide]: the IC50 was 290 nM in the experiment on MOLM-13 cells and 70 nM on BRD4 (BD1).

In the case of `CNC(=O)N1N=C(c2ccc(-c3nc(C)no3)cc2)c2cc(OC)c(OC)cc2CC1C` (racemic) [Example 248, (±)-7,8-Dimethoxy-N,4-dimethyl-1-[4-(3-methyl-1,2,4-oxadiazol-5-yl)phenyl]-4,5-dihydro-3H-2,3-benzodiazepine-3-carboxamide], the IC50 in the experiment on MOLM-13 cells was determined as 140 nM; at BRD4 (BD1) it was 190 nM.

For the compound `CNC(=O)N1N=C(c2ccc(-n3nc(C)nc3C)cc2)c2cc(OC)c(OC)cc2CC1C` (racemic) [Example 154, (±)-1-[4-(3,5-dimethyl-1H-1,2,4-triazol-1-yl)phenyl]-7,8-dimethoxy-N,4-dimethyl-4,5-dihydro-3H-2,3-benzodiazepine-3-carboxamide], the IC50 with MOLM-13 cells is 2080 nM; at BRD4 (BD1), 170 nM.

Turning to `CNC(=O)N1N=C(c2ccc(N3CCN(C(=O)C(C)(C)O)CC3)cc2)c2cc(OC)c(OC)cc2CC1C` (racemic) [Example 134, (±)-1-{4-[4-(2-hydroxy-2-methylpropanoyl)-piperazin-1-yl]phenyl}-7,8-dimethoxy-N,4-dimethyl-4,5-dihydro-3H-2,3-benzodiazepine-3-carboxamide], the IC50 with MOLM-13 cells came out at 360 nM; at BRD4 (BD1), 50 nM.

`CNC(=O)N1N=C(c2ccc(N3CCCN(C)CC3=O)cc2)c2cc(OC)c(OC)cc2CC1C` (racemic) [Example 37, (±)-7,8-dimethoxy-N,4-dimethyl-1-[4-(4-methyl-2-oxo-1,4-diazepan-1-yl)phenyl]-4,5-dihydro-3H-2,3-benzodiazepine-3-carboxamide]: the 50% inhibitory concentration (IC50) in the experiment with MOLM-13 cells turned out to be 1130 nM; at BRD4 (BD1), 120 nM.

As for `CNC(=O)N1N=C(c2ccc(N3CCN(C)CC3=O)cc2)c2cc(OC)c(OC)cc2C[C@@H]1C` [Example 43.1, (4S)-7,8-dimethoxy-N,4-dimethyl-1-[4-(4-methyl-2-oxopiperazin-1-yl)phenyl]-4,5-dihydro-3H-2,3-benzodiazepine-3-carboxamide], the figures for the IC50 in the experiment with MOLM-13 cells and on BRD4 (BD1) were 810 nM and 170 nM, respectively.

As for `CNC(=O)N1N=C(c2ccc(N3CCNC(=O)C3)cc2)c2cc(OC)c(OC)cc2CC1C` (racemic) [Example 137, (±)-7,8-dimethoxy-N,4-dimethyl-1-[4-(3-oxopiperazin-1-yl)phenyl]-4,5-dihydro-3H-2,3-benzodiazepine-3-carboxamide], the IC50 with MOLM-13 cells was found to be 490 nM; on BRD4 (BD1) it was 60 nM.

As for `CNC(=O)N1N=C(c2ccc(-c3ccc(S(=O)(=O)NC4CC4)cc3)cc2)c2cc(OC)c(OC)cc2CC1C` (racemic) [Example 118, (±)-1-[4′-(cyclopropylsulphamoyl)-biphenyl-4-yl]-7,8-dimethoxy-N,4-dimethyl-4,5-dihydro-3H-2,3-benzodiazepine-3-carboxamide], the IC50 with MOLM-13 cells was 500 nM; at BRD4 (BD1), 70 nM.

`CNC(=O)N1N=C(c2ccc(N3CCN(C)CC3)c(C#N)c2)c2cc(OC)c(OC)cc2C[C@@H]1C` [Example 254, (4S)-1-[3-Cyano-4-(4-methylpiperazin-1-yl)phenyl]-7,8-dimethoxy-N,4-dimethyl-4,5-dihydro-3H-2,3-benzodiazepine-3-carboxamide]: the IC50 worked out at 170 nM in the experiment on MOLM-13 cells and 110 nM on BRD4 (BD1).

In the case of `CNC(=O)N1N=C(c2ccc(N3CCN(C)CC3)c(Br)c2)c2cc(OC)c(OC)cc2C[C@@H]1C` [Example 253, (4S)-1-[3-Bromo-4-(4-methylpiperazin-1-yl)phenyl]-7,8-dimethoxy-N,4-dimethyl-4,5-dihydro-3H-2,3-benzodiazepine-3-carboxamide], the IC50 was determined as 60 nM with MOLM-13 cells and 40 nM on BRD4 (BD1).
